Experimental data: patent US8415312B2, “Compound which is a nystatin derivative” (Biosergen AS, priority 2007, dated 2013)
In brackets after ≈: the same amount, converted by molar mass.

Assays:
Assay in all cases: Antifungal susceptibility study (1), broth microdilution MIC
Assay type in all cases: cell-based
[1] = test system: Candida albicans ATCC 14053; conditions: lowest concentration preventing any visible growth, read at 48 hours, 35° C., RPMI 1640 pH 7.0
Experimental: (§1) ACROS ORGANICS, New Jersey, USA), pH 7.0, was used in study. […] Then these DMSO solutions were diluted 50-fold (first 10-fold and then 5-fold) in the test medium. […] The solutions were prepared just before using. The organisms used for susceptibility testing were: Candida albicans ATCC 14053, Cryptococcus humicolus ATCC 9949, Aspergillus niger ATCC 16404 and Fusarium oxysporum VKM F-140 (=CMI, IMI 90473). Organisms were stored on potato dextrose agar […] 50% glycerol solution at -70° C. For short-term storage, stock cultures were stored on agar […] 4° C. The cultures of yeasts were sub-cultured onto Sabouraud dextrose (SAB) agar and incubated for 24 hours at 35° C. (Candida albicans) or for 48 hours at 25° C. (Cryptococcus humicolus) to obtain a freshly grown pure culture. The cultures of moulds were sub-cultured onto potato dextrose agar and incubated for 7 days at 35° C. […] (Fusarium oxysporum) to ensure maximum sporulation. […] Inoculum quantitation was performed by plating dilution of the inoculum on Sabouraud dextrose agar to determine the viable number of CFU per milliliter. Sterile 96-well flat-bottomed microtitration plates were used for testing. 100 μl of diluted inocula were dispensed into each microdilution well containing 100 μl of the double dilutions of compounds. Drug-free and yeast/mould-free controls were included. Microdilution trays were incubated at 35° C. (Candida albicans and moulds) or 25° C. (Cryptococcus humicolus) without agitation and observed for the presence or absence of visible growth. […] Minimal inhibitory concentrations (MICs) were read at 48 hours.

[2] = test system: Cryptococcus humicolus ATCC 9949; conditions: lowest concentration preventing any visible growth, read at 48 hours, 25° C., RPMI 1640 pH 7.0
Experimental: as §1

[3] = test system: Aspergillus niger ATCC 16404; conditions: lowest concentration preventing any visible growth, read at 48 hours, 35° C., RPMI 1640 pH 7.0
Experimental: (§2) ACROS ORGANICS, New Jersey, USA), pH 7.0, was used in study. […] Then these DMSO solutions were diluted 50-fold (first 10-fold and then 5-fold) in the test medium. […] The solutions were prepared just before using. The organisms used for susceptibility testing were: Candida albicans ATCC 14053, Cryptococcus humicolus ATCC 9949, Aspergillus niger ATCC 16404 and Fusarium oxysporum VKM F-140 (=CMI, IMI 90473). Organisms were stored on potato dextrose agar […] 50% glycerol solution at -70° C. For short-term storage, stock cultures were stored on agar […] 4° C. The cultures of yeasts were sub-cultured onto Sabouraud dextrose (SAB) agar and incubated for 24 hours at 35° C. (Candida albicans) or for 48 hours at 25° C. (Cryptococcus humicolus) to obtain a freshly grown pure culture. The cultures of moulds were sub-cultured onto potato dextrose agar and incubated for 7 days at 35° C. […] (Fusarium oxysporum) to ensure maximum sporulation. […] Finally, the suspensions were vortexed for 15 s to break up clumps of cells and then filtered through four layers of sterile gauze. The densities of conidial spore suspensions was measured at 530 nm and adjusted to 0.09-0.11 for Aspergillus niger and 0.15-0.17 for Fusarium oxysporum. These suspensions were diluted 1:50 with the standard medium. […] Inoculum quantitation was performed by plating dilution of the inoculum on Sabouraud dextrose agar to determine the viable number of CFU per milliliter. Sterile 96-well flat-bottomed microtitration plates were used for testing. 100 μl of diluted inocula were dispensed into each microdilution well containing 100 μl of the double dilutions of compounds. Drug-free and yeast/mould-free controls were included. Microdilution trays were incubated at 35° C. (Candida albicans and moulds) or 25° C. (Cryptococcus humicolus) without agitation and observed for the presence or absence of visible growth. […] Minimal inhibitory concentrations (MICs) were read at 48 hours.

[4] = test system: Fusarium oxysporum VKM F-140; conditions: lowest concentration preventing any visible growth, read at 48 hours, 35° C., RPMI 1640 pH 7.0
Experimental: as §2

MIC Candida albicans ATCC 14053 [1]	MIC Cryptococcus humicolus ATCC 9949 [2]	MIC Aspergillus niger ATCC 16404 [3]	MIC Fusarium oxysporum VKM F-140 [4]	Compound
2 µg/mL	2 µg/mL	2 µg/mL	2 µg/mL	CC1O[C@@H](O[C@H]2/C=C/C=C/C=C/C=C/C=C/C=C/C=C/[C@H](C)[C@@H](O)[C@@H](C)[C@H](C)OC(=O)C[C@H](O)C[C@H](O)C[C@H](O)CC[C@@H](O)[C@H](O)C[C@]3(O)C[C@H](O)[C@@H](C)[C@H](C2)O3)[C@H](O)C(N)[C@@H]1O.N[C@@H](CC(=O)O)C(=O)O (stereo partly drawn) [Compound 55]
2 µg/mL (≈ 1.95 µM)	2 µg/mL (≈ 1.95 µM)	2 µg/mL (≈ 1.95 µM)	8 µg/mL (≈ 7.79 µM)	CC1O[C@@H](O[C@H]2/C=C/C=C/C=C/C=C/C=C/C=C/C=C/[C@H](C)[C@@H](O)[C@@H](C)[C@H](C)OC(=O)C[C@H](O)C[C@H](O)C[C@H](O)CC[C@@H](O)[C@H](O)C[C@]3(O)C[C@H](O)[C@@H](C)[C@H](C2)O3)[C@H](O)C(NCc2ccc(N(C)C)cc2)[C@@H]1O (stereo partly drawn) [Compound 50, N-(4-N,N-Di-methylaminobenzyl) Compound 1]
2 µg/mL	2 µg/mL	2 µg/mL	2 µg/mL	CC1O[C@@H](O[C@H]2/C=C/C=C/C=C/C=C/C=C/C=C/C=C/[C@H](C)[C@@H](O)[C@@H](C)[C@H](C)OC(=O)C[C@H](O)C[C@H](O)C[C@H](O)CC[C@@H](O)[C@H](O)C[C@]3(O)C[C@H](O)[C@@H](C)[C@H](C2)O3)[C@H](O)C(N)[C@@H]1O.O=C(O)C(Cl)Cl (stereo partly drawn) [Compound 57]
2 µg/mL (≈ 1.93 µM)	2 µg/mL (≈ 1.93 µM)	4 µg/mL (≈ 3.86 µM)	8 µg/mL (≈ 7.71 µM)	COC(=O)C(NC(=O)C1C(O)CC2(O)CC(O)C(O)CCC(O)CC(O)CC(O)CC(=O)OC(C)C(C)C(O)C(C)C=CC=CC=CC=CC=CC=CC=CC(OC3OC(C)C(O)C(N)C3O)CC1O2)C(C)C (stereo not drawn) [Compound 8]
2 µg/mL (≈ 1.89 µM)	2 µg/mL (≈ 1.89 µM)	4 µg/mL (≈ 3.78 µM)	16 µg/mL (≈ 15.1 µM)	CC1O[C@@H](O[C@H]2/C=C/C=C/C=C/C=C/C=C/C=C/C=C/[C@H](C)[C@@H](O)[C@@H](C)[C@H](C)OC(=O)C[C@H](O)C[C@H](O)C[C@H](O)CC[C@@H](O)[C@H](O)C[C@]3(O)C[C@H](O)[C@@H](C(=O)O)[C@H](C2)O3)[C@H](O)C(NC(=O)c2ccc(CN)cc2)[C@@H]1O (stereo partly drawn) [Compound 47, N-(4-Aminomethylbenzoyl) S44HP]
1 µg/mL (≈ 0.88 µM)	1 µg/mL (≈ 0.88 µM)	1 µg/mL (≈ 0.88 µM)	2 µg/mL (≈ 1.76 µM)	CC1C=CC=CC=CC=CC=CC=CC=CC(OC2OC(C)C(O)C(NC(=O)C(N)CCCCN)C2O)CC2OC(O)(CC(O)C(O)CCC(O)CC(O)CC(O)CC(=O)OC(C)C(C)C1O)CC(O)C2C(=O)NCCCN(C)C [Compound 33, N-L-lysyl S44HP DMAP-Amide]
4 µg/mL (≈ 3.8 µM)	4 µg/mL (≈ 3.8 µM)	8 µg/mL (≈ 7.6 µM)	8 µg/mL (≈ 7.6 µM)	CC1C=CC=CC=CC=CC=CC=CC=CC(OC2OC(C)C(O)C(NC(=O)C(N)CCCCN)C2O)CC2OC(O)(CC(O)C(O)CCC(O)CC(O)CC(O)CC(=O)OC(C)C(C)C1O)CC(O)C2C(=O)O (stereo not drawn) [Compound 23]
2 µg/mL (≈ 1.6 µM)	2 µg/mL (≈ 1.6 µM)	2 µg/mL (≈ 1.6 µM)	8 µg/mL (≈ 6.41 µM)	CC1C=CC=CC=CC=CC=CC=CC=CC(OC2OC(C)C(O)C(NCC3(O)OCC(O)C(OC4OC(CO)C(O)C(O)C4O)C3O)C2O)CC2OC(O)(CC(O)C(O)CCC(O)CC(O)CC(O)CC(=O)OC(C)C(C)C1O)CC(O)C2C(=O)O (stereo not drawn) [Compound 19]
2 µg/mL (≈ 1.79 µM)	2 µg/mL (≈ 1.79 µM)	4 µg/mL (≈ 3.59 µM)	16 µg/mL (≈ 14.4 µM)	CC1C=CC=CC=CC=CC=CC=CC=CC(OC2OC(C)C(O)C(NC(=O)c3ccc(CN)cc3)C2O)CC2OC(O)(CC(O)C(O)CCC(O)CC(O)CC(O)CC(=O)OC(C)C(C)C1O)CC(O)C2C(=O)NCCCO (stereo not drawn) [Compound 40]
2 µg/mL	2 µg/mL	2 µg/mL	2 µg/mL	CC1O[C@@H](O[C@H]2/C=C/C=C/C=C/C=C/C=C/C=C/C=C/[C@H](C)[C@@H](O)[C@@H](C)[C@H](C)OC(=O)C[C@H](O)C[C@H](O)C[C@H](O)CC[C@@H](O)[C@H](O)C[C@]3(O)C[C@H](O)[C@@H](C)[C@H](C2)O3)[C@H](O)C(N)[C@@H]1O.N[C@H](CCC(=O)O)C(=O)O (stereo partly drawn) [Compound 54]
1 µg/mL	2 µg/mL	2 µg/mL	4 µg/mL	CC1O[C@@H](O[C@H]2/C=C/C=C/C=C/C=C/C=C/C=C/C=C/[C@H](C)[C@@H](O)[C@@H](C)[C@H](C)OC(=O)C[C@H](O)C[C@H](O)C[C@H](O)CC[C@@H](O)[C@H](O)C[C@]3(O)C[C@H](O)[C@@H](C(=O)NCCN(C)C)[C@H](C2)O3)[C@H](O)C(NC(=O)[C@@H](N)CCCCN)[C@@H]1O.Cl (stereo partly drawn) [Compound 44]
2 µg/mL	2 µg/mL	4 µg/mL	4 µg/mL	CC1O[C@@H](O[C@H]2/C=C/C=C/C=C/C=C/C=C/C=C/C=C/[C@H](C)[C@@H](O)[C@@H](C)[C@H](C)OC(=O)C[C@H](O)C[C@H](O)C[C@H](O)CC[C@@H](O)[C@H](O)C[C@]3(O)C[C@H](O)[C@@H](C)[C@H](C2)O3)[C@H](O)C(N)[C@@H]1O.Cl (stereo partly drawn) [Compound 53, Compound 1 Hydrochloride]
1 µg/mL (≈ 0.915 µM)	2 µg/mL (≈ 1.83 µM)	1 µg/mL (≈ 0.915 µM)	4 µg/mL (≈ 3.66 µM)	CC1C=CC=CC=CC=CC=CC=CC=CC(OC2OC(C)C(O)C(NC(=O)CN(C)C)C2O)CC2OC(O)(CC(O)C(O)CCC(O)CC(O)CC(O)CC(=O)OC(C)C(C)C1O)CC(O)C2C(=O)NCCCN(C)C (stereo not drawn) [Compound 34]
2 µg/mL (≈ 2.04 µM)	4 µg/mL (≈ 4.08 µM)	4 µg/mL (≈ 4.08 µM)	4 µg/mL (≈ 4.08 µM)	CC1C=CC=CC=CC=CC=CC=CC=CC(OC2OC(C)C(O)C(NCCCN)C2O)CC2OC(O)(CC(O)C(O)CCC(O)CC(O)CC(O)CC(=O)OC(C)C(C)C1O)CC(O)C2C(=O)O (stereo not drawn) [Compound 21]

Compound	MIC Candida albicans ATCC 14053 [1]	MIC Cryptococcus humicolus ATCC 9949 [2]	MIC Aspergillus niger ATCC 16404 [3]	MIC Fusarium oxysporum VKM F-140 [4]
CC1O[C@@H](O[C@H]2/C=C/C=C/C=C/C=C/C=C/C=C/C=C/[C@H](C)[C@@H](O)[C@@H](C)[C@H](C)OC(=O)C[C@H](O)C[C@H](O)C[C@H](O)CC[C@@H](O)[C@H](O)C[C@]3(O)C[C@H](O)[C@@H](C(=O)NCCN(C)C)[C@H](C2)O3)[C@H](O)C(NCC2(O)OC[C@@H](O)[C@H](O)[C@@H]2O)[C@@H]1O (stereo partly drawn) [Compound 42, N-tagatopyronosyl S44HP DMAE amide]	0.5 µg/mL (≈ 0.432 µM)	1 µg/mL (≈ 0.865 µM)	1 µg/mL (≈ 0.865 µM)	2 µg/mL (≈ 1.73 µM)
